Literature values in patent US11344598B2, “Herbal nanoformulations for treating psoriasis and other skin conditions” (Sirbal Ltd., priority 2016, dated 2022).

Settings: in words

## CCC(=O)O[C@]1(C(=O)CCl)[C@@H](C)C[C@H]2[C@@H]3CCC4=CC(=O)C=C[C@]4(C)[C@@]3(F)[C@@H](O)C[C@@]21C [Clobetasol propionate, clobetasol propionate]
  solubility in water: insoluble in water
